Assay results taken from the NIST ThermoML archive (doi:10.1016/j.jct.2016.10.047).

Assay: refractive index (other wavelength) (dimensionless); xn = mol fraction of the nth substance listed
Conditions: 94 kPa, Liquid, Wavelength=632.8 nm, minimum deviation method

CCCCCCCC[n+]1ccn(C)c1.F[P-](F)(F)(F)(F)F [1-octyl-3-methylimidazolium hexafluorophosphate] + CC(C)O
Conditions | refractive index
298.19 K, x1 = 1 | 1.4215
300.2 K, x1 = 1 | 1.421
302.19 K, x1 = 1 | 1.4204
304.2 K, x1 = 1 | 1.4199
306.22 K, x1 = 1 | 1.4193
307.22 K, x1 = 0.5 | 1.4091
307.22 K, x1 = 0.8 | 1.4159
307.28 K, x1 = 0.901 | 1.4177
307.29 K, x1 = 0.601 | 1.4119
307.3 K, x1 = 0.4 | 1.4056
307.3 K, x1 = 0.699 | 1.4141
307.41 K, x1 = 0.3 | 1.4009
308.19 K, x1 = 0.699 | 1.4138
308.21 K, x1 = 0.5 | 1.4088
308.21 K, x1 = 0.601 | 1.4116
308.23 K, x1 = 0.901 | 1.4174
308.24 K, x1 = 1 | 1.4188
308.25 K, x1 = 0.8 | 1.4156
308.29 K, x1 = 0.4 | 1.4053
308.4 K, x1 = 0.3 | 1.4006
309.22 K, x1 = 0.5 | 1.4085
309.24 K, x1 = 0.601 | 1.4113
309.24 K, x1 = 0.8 | 1.4154
309.25 K, x1 = 0.901 | 1.4171
309.27 K, x1 = 0.699 | 1.4135
309.35 K, x1 = 0.4 | 1.405
309.39 K, x1 = 0.3 | 1.4003
309.47 K, x1 = 0.2 | 1.3938
310.24 K, x1 = 0.601 | 1.411
310.25 K, x1 = 0.5 | 1.4082
310.25 K, x1 = 0.8 | 1.4151
310.25 K, x1 = 1 | 1.4183
310.31 K, x1 = 0.699 | 1.4132
310.34 K, x1 = 0.901 | 1.4168
310.36 K, x1 = 0.4 | 1.4047
310.42 K, x1 = 0.3 | 1.3999
310.45 K, x1 = 0.2 | 1.3934
310.49 K, x1 = 0.1 | 1.3838
311.23 K, x1 = 0.601 | 1.4107
311.24 K, x1 = 0.5 | 1.4079
311.25 K, x1 = 0.699 | 1.413
311.25 K, x1 = 0.901 | 1.4166
311.26 K, x1 = 0.8 | 1.4148
311.36 K, x1 = 0.4 | 1.4044
311.46 K, x1 = 0.3 | 1.3996
311.48 K, x1 = 0.2 | 1.3931
311.5 K, x1 = 0.1 | 1.3834
312.22 K, x1 = 0.8 | 1.4146
312.24 K, x1 = 0.601 | 1.4104
312.24 K, x1 = 1 | 1.4178
312.25 K, x1 = 0.5 | 1.4076
312.26 K, x1 = 0.699 | 1.4127
312.35 K, x1 = 0.901 | 1.4163
312.37 K, x1 = 0.4 | 1.4041
312.4 K, x1 = 0.3 | 1.3993
312.47 K, x1 = 0.2 | 1.3927
312.49 K, x1 = 0.1 | 1.383
313.21 K, x1 = 0.601 | 1.4101
313.25 K, x1 = 0.8 | 1.4143
313.26 K, x1 = 0.5 | 1.4073
313.26 K, x1 = 0.901 | 1.416
313.35 K, x1 = 0.4 | 1.4038
313.37 K, x1 = 0.699 | 1.4124
313.43 K, x1 = 0.3 | 1.399
313.49 K, x1 = 0.2 | 1.3924
313.52 K, x1 = 0.1 | 1.3826
314.23 K, x1 = 0.601 | 1.4098
314.23 K, x1 = 0.699 | 1.4121
314.27 K, x1 = 0.5 | 1.407
314.29 K, x1 = 0.8 | 1.414
314.29 K, x1 = 0.901 | 1.4157
314.39 K, x1 = 0.4 | 1.4035
314.46 K, x1 = 0.3 | 1.3986
314.48 K, x1 = 0.2 | 1.392
314.54 K, x1 = 0.1 | 1.3822
315.58 K, x1 = 0.1 | 1.3818
315.58 K, x1 = 0.2 | 1.3916
